Results on three compounds are retold here after ChEMBL document CHEMBL1126778, “Adenosine A1 antagonists. 3. Structure-activity relationships on amelioration against scopolamine- or N6-((R)-phenylisopropyl)adenosine-induced cognitive disturbance” (J Med Chem, 1993).

In experiment [1] the test system is Mus musculus. Kind of experiment: Acquisition time in (R)-PIA) induced avoidance test (performed in mice) for antagonistic activity after p.o. administration of 1.25 mg/kg. In kind it is functional. As to conditions: route oral.
Experiment [2] relates to Rattus norvegicus. Briefly: Retention time in Scopolamine induced avoidance test (performed in rat) for antagonistic activity after p.o. administration of 0.08 mg/kg. The experiment is classed as functional, organism-based. The arrangement: dose 0.08 mg/kg.
Experiment [3] deals with Mus musculus. Briefly: Retention time in (R)-PIA) induced avoidance test (performed in mice) for antagonistic activity after peroral administration of 0.31 mg/kg. The experiment is classed as functional, organism-based. The arrangement: dose 0.31 mg/kg.
The subject of experiment [4] is Rattus norvegicus. Kind of experiment: Acquisition time in Scopolamine induced avoidance test (performed in rat) for antagonistic activity after peroral administration of 0.02 mg/kg. In kind it is functional. As to conditions: route oral.
Experiment [5] has as its system Rattus norvegicus. Kind of experiment: Retention time in Scopolamine induced avoidance test (performed in rat) for antagonistic activity after peroral administration of 0.02 mg/kg. The experiment is classed as functional, organism-based. The arrangement: dose 0.02 mg/kg.
Experiment [6] concerns Mus musculus. Briefly: Acquisition time in (R)-PIA) induced avoidance test (performed in mice) for antagonistic activity after peroral administration of 20 mg/kg (n=15). In kind it is functional. As to conditions: route oral.
In experiment [7] the test system is Mus musculus. Kind of experiment: Tested for locomotor activity after oral administration of 40 mg/kg for 120 min. The experiment is classed as functional.
Experiment [8] deals with Rattus norvegicus. Kind of experiment: Retention time in Scopolamine induced avoidance test (performed in rat) for antagonistic activity after p.o. administration of 0.31 mg/kg. In kind it is functional, organism-based. The arrangement: dose 0.31 mg/kg.
Experiment [9] concerns Rattus norvegicus. Briefly: Retention time in Scopolamine induced avoidance test (performed in rat) for antagonistic activity after peroral administration of 5 mg/kg. In kind it is functional, organism-based. The arrangement: dose 5 mg/kg.
In experiment [10] the test system is Rattus norvegicus. Kind of experiment: Acquisition time in Scopolamine induced avoidance test (performed in rat) for antagonistic activity after p.o. administration of 0.31 mg/kg. The settings on record: route oral. In kind it is functional.
For experiment [11], the system named is Mus musculus. Briefly: Acquisition time in (R)-PIA) induced avoidance test (performed in mice) for antagonistic activity after peroral administration of 0.08 mg/kg. In kind it is functional. As to conditions: route oral.
Experiment [12] relates to Mus musculus. Kind of experiment: Tested for locomotor activity after oral administration of 10 mg/kg for 120 min. The experiment is classed as functional.
Experiment [13] concerns the target Adenosine A2 receptor (Rattus norvegicus, UniProt P29276+P30543). Kind of experiment: Binding affinity at Adenosine A2 receptor from rat striatal membranes by N-[3H] ethyladenosin-5'- uronamide displacement.
The test system of experiment [14] is Rattus norvegicus. Briefly: Acquisition time in Scopolamine induced avoidance test (performed in rat) for antagonistic activity after peroral administration of 1.25 mg/kg (n=12). The experiment is classed as functional. The settings on record: route oral.
Experiment [15] deals with Mus musculus. Kind of experiment: Retention time in (R)-PIA) induced avoidance test (performed in mice) for antagonistic activity after peroral administration of 20 mg/kg (n=15) (P<0.005). The experiment is classed as functional, organism-based. Also on record: dose 20 mg/kg.
In experiment [16] the test system is Mus musculus. Kind of experiment: Retention time in (R)-PIA) induced avoidance test (performed in mice) for antagonistic activity after p.o. administration of 1.25 mg/kg. In kind it is functional, organism-based. Also on record: dose 1.25 mg/kg.
In experiment [17] the test system is Rattus norvegicus. Kind of experiment: Retention time in Scopolamine induced avoidance test (performed in […]) for antagonistic activity after peroral administration of 1.25 mg/kg (n=12) (P<0.01). In kind it is functional, organism-based. Also on record: dose 1.25 mg/kg.
Experiment [18] has as its target Adenosine A2 receptor (Homo sapiens, UniProt P29275+P29274). Kind of experiment: Binding affinity against Adenosine A2 receptor from human platelets with [125I]-N6-aminobenzyladenosine.
In experiment [19] the test system is Rattus norvegicus. Kind of experiment: Acquisition time in Scopolamine induced avoidance test (performed in rat) for antagonistic activity after p.o. administration of 0.08 mg/kg. The settings on record: route oral. In kind it is functional.
For experiment [20], the system named is Mus musculus. Briefly: Tested for locomotor activity after oral administration of […] for 120 min. The experiment is classed as functional.
Experiment [21] relates to Rattus norvegicus. Kind of experiment: Acquisition time in Scopolamine induced avoidance test (performed in rat) for antagonistic activity after p.o. administration of 5 mg/kg. In kind it is functional. As to conditions: route oral.
Experiment [22] deals with Mus musculus. Kind of experiment: Acquisition time in (R)-PIA) induced avoidance test (performed in mice) for antagonistic activity after peroral administration of 5 mg/kg. In kind it is functional. The settings on record: route oral.
Experiment [23] relates to Mus musculus. Briefly: Tested for locomotor activity after oral administration of 5 mg/kg for 120 min. In kind it is functional.
Experiment [24] relates to Rattus norvegicus. Kind of experiment: Retention time in Scopolamine induced avoidance test (performed in rat) for antagonistic activity after peroral administration of 1.25 mg/kg. In kind it is functional, organism-based. Also on record: dose 1.25 mg/kg.
In experiment [25] the test system is Mus musculus. Briefly: Retention time in (R)-PIA) induced avoidance test (performed in mice) for antagonistic activity after peroral administration of 5 mg/kg. In kind it is functional, organism-based. The arrangement: dose 5 mg/kg.
Experiment [26] has as its system Mus musculus. Kind of experiment: Retention time in (R)-PIA) induced avoidance test (performed in mice) for antagonistic activity after peroral administration of 0.02 mg/kg.
The test system of experiment [27] is Mus musculus. Kind of experiment: Acquisition time in (R)-PIA) induced avoidance test (performed in mice) for antagonistic activity after peroral administration of 0.02 mg/kg. The settings on record: route oral.
Experiment [28] relates to Mus musculus. Kind of experiment: Tested for locomotor activity after oral administration of 1.25 mg/kg for 120 min. The experiment is classed as functional.
Experiment [29] deals with Rattus norvegicus. Briefly: Acquisition time in Scopolamine induced avoidance test (performed in rat) for antagonistic activity after peroral administration of 1.25 mg/kg. In kind it is functional. As to conditions: route oral.
For experiment [30], the system named is Mus musculus. Kind of experiment: Acquisition time in (R)-PIA) induced avoidance test (performed in mice) for antagonistic activity after p.o. administration of 0.31 mg/kg. The experiment is classed as functional. The settings on record: route oral.
The test system of experiment [31] is Rattus norvegicus. Kind of experiment: Retention time in Scopolamine induced avoidance test (performed in rat) for antagonistic activity after peroral administration of 20 mg/kg (n=10). The experiment is classed as functional, organism-based. Also on record: dose 20 mg/kg.
The test system of experiment [32] is Rattus norvegicus. Kind of experiment: Retention time in Scopolamine induced avoidance test (performed in […]) for antagonistic activity after peroral administration of 5 mg/kg. The arrangement: dose 5 mg/kg. The experiment is classed as functional, organism-based.
Experiment [33] deals with Rattus norvegicus. Briefly: Acquisition time in Scopolamine induced avoidance test (performed in rat) for antagonistic activity after peroral administration of 20 mg/kg. The settings on record: route oral. The experiment is classed as functional.
Experiment [34] has as its system Mus musculus. Briefly: Retention time in (R)-PIA) induced avoidance test (performed in mice) for antagonistic activity after peroral administration of 0.08 mg/kg. The experiment is classed as functional, organism-based. The arrangement: dose 0.08 mg/kg.
Experiment [35] concerns Rattus norvegicus. Briefly: Acquisition time in Scopolamine induced avoidance test (performed in rat) for antagonistic activity after peroral administration of 1.25 mg/kg (n=20). The settings on record: route oral. The experiment is classed as functional.
In experiment [36] the test system is Rattus norvegicus. Kind of experiment: Retention time in Scopolamine induced avoidance test (performed in rat) for antagonistic activity after peroral administration of 20 mg/kg (n=19). In kind it is functional, organism-based. Also on record: dose 20 mg/kg.

Structures are written as SMILES. Values joined by “and” are separate entries in the source; they are usually repeats but may differ in a detail not shown here. Identical values can stand only once.

For the compound `CCCn1c(=O)c2nc(C3CCCC3)[nH]c2n(CCc2ccc(N)cc2)c1=O`, the Acquisition time in the experiment with Mus musculus [1] (1.25 mg/kg) is 28.7 s and 23.1 s; with Rattus norvegicus [4], 25.7 s; in the experiment on Mus musculus [6] it was 23.5 s; in the experiment on Rattus norvegicus [10], 11.1 s; in the experiment with Mus musculus [11] it was 21.2 s; in the experiment on Rattus norvegicus [14] it was 18.3 s. Besides, the Acquisition time in the experiment with Rattus norvegicus [19] is given as 20.8 s; in the experiment with Rattus norvegicus [21], 12.3 s. For the same compound, the Retention time with Rattus norvegicus [2] worked out at 160 s; with Mus musculus [3], 113 s; in the experiment on Rattus norvegicus [5] it was 151 s; in the experiment with Rattus norvegicus [8], 255 s; in the experiment with Rattus norvegicus [9] it was 255 s; in the experiment on Mus musculus [15], 318 s. Besides, the Retention time in the experiment on Mus musculus [16] is 152 s and 177 s; in the experiment on Rattus norvegicus [17] it was 384 s. In addition, the Locomotor activity in the experiment on Mus musculus [7] is recorded as 5867 Counts; with Mus musculus [12], 6693 Counts; in the experiment with Mus musculus [20], 6224 Counts. In addition, the Ki (commonly a measure of affinity in units of concentration, obtained from inhibition or displacement) was found to be 430 nM at Adenosine A2 receptor [13] and 2000 nM on Adenosine A2 receptor [18].

Turning to `CCCN1C(=O)N2CC(CC)N=C2c2[nH]c(C34CC5CC(CC3C5)C4)nc21` (racemic), the Acquisition time was found to be 24.9 s with Mus musculus [22]; 21.2 s in the experiment on Mus musculus [1]; 17.3 s in the experiment with Rattus norvegicus [10]; 23 s with Mus musculus [27]; 23.5 s in the experiment on Mus musculus [11]; 14.1 s with Rattus norvegicus [29]. The Acquisition time in the experiment on Mus musculus [30] is 22.7 s; with Rattus norvegicus [19], 21.3 s; in the experiment with Rattus norvegicus [21], 22.5 s; with Rattus norvegicus [33] it was 26.6 s. Further, the Retention time in the experiment with Rattus norvegicus [2] is 251 s; in the experiment with Mus musculus [3], 292 s; in the experiment on Rattus norvegicus [24] it was 40.8 s; with Mus musculus [25] it was 277 s; with Rattus norvegicus [8] it was 221 s; in the experiment with Mus musculus [26], 168 s. In addition, the Retention time is 21 s in the experiment with Rattus norvegicus [31], 231 s in the experiment on Mus musculus [16], 66.3 s in the experiment on Rattus norvegicus [32] and 196 s with Mus musculus [34]. The compound further yielded a Locomotor activity in the experiment with Mus musculus [23] of 6907 Counts. In the experiment on Mus musculus [28], this compound came in with a Locomotor of 5761 Counts.

Regarding `CCCn1c(=O)c2nc(C3CCC(=O)C3)[nH]c2n(CCc2ccc(N)cc2)c1=O` (centres undefined), the Acquisition time in the experiment on Mus musculus [22] came to 12.9 s; in the experiment with Mus musculus [1], 14.6 s; in the experiment with Rattus norvegicus [10], 13.1 s; in the experiment with Mus musculus [27], 14.2 s; in the experiment on Mus musculus [11], 16.4 s; in the experiment with Rattus norvegicus [35], 12.1 s. The Acquisition time in the experiment on Mus musculus [30] turned out to be 17.5 s; with Rattus norvegicus [19], 10.5 s; in the experiment with Rattus norvegicus [21] it was 10.2 s; with Rattus norvegicus [33], 13.6 s. Moreover, the Retention time with Rattus norvegicus [2] amounted to 119 s; with Mus musculus [3], 23.4 s; in the experiment with Rattus norvegicus [24], 163 s; in the experiment with Mus musculus [25], 67.7 s; in the experiment with Rattus norvegicus [8] it was 109 s; in the experiment on Mus musculus [26], 73.9 s. The Retention time was 117 s in the experiment on Rattus norvegicus [36], 19.1 s with Mus musculus [16], 108 s with Rattus norvegicus [32] and 18.7 s in the experiment with Mus musculus [34]. In addition, the Ki on Adenosine A2 receptor [13] is listed as over 100000 nM.
